# Laboratory results as given in patent publication US20020137891A1, “Protein scaffold and its use to multimerise monomeric polypeptides” (priority 1999, published 2002).
# Legend:
# anti-GroEL antibodies = assay: Anti-GroEL antibodies binding by ELISA; set-up: species or system rabbit; details: direct and indirect ELISA, different concentrations of antibodies, FIG. 6
# Protocol: Anti-GroEL antibodies binding by ELISA. The same amount of proteins (1 μg) were coated as described above. […] ELISAs were developed as described above.
# E. coli SV6 groEL673 = assay: In vivo complementation of thermosensitive groEL mutant at 43° C., strain SV6; assay type: cell-based; details: pJC plasmid, relative to growth at 30° C.
# Protocol: In vivo complementation experiments. Complementation experiments were performed by transforming electro-competent SV2 or SV6 cells with the pJC series of expression vectors and plating an aliquot of the transformation reactions directly at 43° C. The percentage of viable cells relative to the growth at 30° C. was determined. A representative number of clones which grew at 43° C. were incubated in absence of any selective markers at permissive temperature. After prolonged growth the loss of the pJC plasmids and the ts phenotype were verified. Each experiment was performed in duplicate. Plasmids carrying no groE genes or encoding the GroE proteins were used as negative or positive controls, respectively.
# [1] = system: AI90 (ΔgroEL::kan^R) [pBADEL] E. coli strain; assay: Plating ability of transformed AI90 (ΔgroEL::kan^R) [pBAD-EL] at 37° C. on depletion of GroEL; assay type: cell-based
# Protocol: AI90 (ΔgroEL::kan^R) [pBAD-EL] cells were transformed with the pJC vector series. Transformants were selected at 37° C. on LB supplemented with 50 μg.ml^−1 of kanamycin, 120 μg.mL^−1 of ampicillin, 25 μg.mL^1 of chloramphenicol and 0.2% L(+)arabinose. Depletion of GroEL protein was analysed at 37° C. by plating the same quantity of AI90 [pBAD-EL+pJC vectors] cells on LB plates containing 1% D(+)glucose or various amount of arabinose.
# Each experiment was performed in triplicate. Plasmids carrying no groE genes or encoding the GroE proteins were used as negative or positive controls, respectively.
# bacteriophage λ (b2cI) = assay: Growth (plaque formation) of bacteriophage λ at 30° C. in transformed wild-type and groEL mutant strains; assay type: cell-based, E. coli
# Excerpt: Bacterial and bacteriophage strains. The E. coli strains used in this study were: C41(DE3), a mutant of BL21(DE3) capable of expressing toxic genes (Miroux, B. & Walker, J. E. (1996) J. Mol. Biol. 260, 289-298); SV2 (B178groEL44), SV3 (B178groEL59) and SV6 (B178groEL673): isogenic strains carrying temperature-sensitive alleles of groEL; SV1(=B178) (Georgopoulos, C., Hendrix, R. W., Casjens, S. R. & Kaiser, A. D. (1973) J. Mol. Biol. 76, 45-60), AI90 (ΔgroEL::kan^R) [pBAD-EL] (Ivic, A., Olden, D., Wallington, E. J. & Lund, P. A. (1997) Gene 194, 1-8), and TG1 (Gibson, T. J. (1984) Ph.D. thesis, University of Cambridge, U.K). Bacteriophage λb2cI (Zeilstra-Ryalls, J., Fayet, O., Baird, L. & Georgopoulos, C. (1993) J. Bacteriol. 175, 1134-1143) was used according to standard methods (Arber, W., Enquist, L., Hohn, B., Murray, N. E. & Murray, K. (1983) in Lambda II., ed. R. W. Hendrix, J. W. r., F. W. Stahl and R. A. Weisberg (Cold Spring Harbor Laboratory, Cold Spring Harbor, N.Y.), pp. 433-466); plaque formation was assayed at 30° C. T4D0, a derivative of bacteriophage T4 (Zeilstra-Ryalls, J., Fayet, O., Baird, L. & Georgopoulos, C. (1993) J. Bacteriol. 175, 1134-1143), was used according to standard methods (Karam, J. D. (1994) Molecular biology of bacteriophage T4. (American Society for Microbiology, Washington, D.C.)); plaque formation was assayed at 37° C.
# Bacteriophage λ requires the chaperonins GroES and GroEL for protein folding during morphogenesis; bacteriophage T4 requires GroEL and Gp31, the latter being encoded by the bacteriophage genome (Zeilstra-Ryalls, J., Fayet, O. & Georgopoulos, C. (1991) Annu. Rev. Microbiol. 45, 301-325). Nine groE alleles which fail to support λ growth have been sequenced (Zeilstra-Ryalls, J., Fayet, O., Baird, L. & Georgopoulos, C. (1993) J. Bacteriol. 175, 1134-1143). We examined the ability of MC7, over-expressed from the constitutive tet promoter on a high-copy number vector (see FIG. 2), to complement three mutant groEL alleles for plaque formation by λ (b2cI) at 30° C. (Table 3) and T4 at 37° C. (Table 4).
# [2] = system: mutant Huntingdon exon 1-expressing PC12 and SH-SY5Y cells; assay: Inclusion formation and cell death in mutant Huntingdon exon 1-expressing cells on overexpression of chaperones; assay type: cell-based
# Excerpt: These phenomena have been studied by transiently transfecting part of Huntingdon exon 1 in COS-7, PC12, and SH-SY5Y cells. Inclusion formation was not seen with constructs expressing 23 glutamines but was repeat length and time dependent for mutant constructs with 43-74 repeats. HSP70, HSP40, the 20S proteasome and ubiquitin colocalized with inclusions. […] Thus, inclusion formation may be enhanced in polyglutamine diseases, if the pathological process results in proteasome inhibition or a heat-shock response. […] To our knowledge, this is the first report of an HSP increasing aggregation of an abnormally folded protein in mammalian cells and expands the current understanding of the roles of HDJ-2yHSDJ in protein folding (See Wyttenbach, A. et al. (2000) Proc. Natl. Acad. Sci. USA 97, 2899-2903).
# We have tested MC72 in the same system.
# SV2 [pBADGroES] = details: SV2 over-expressing GroES from pBAD
substance,measurement,setting,value
"GroEL (1-548): E. coli molecular chaperone, 14 subunits of 57.5 kD in two seven membered rings [reference compound]",Detection by antibodies specific to GroEL,anti-GroEL antibodies,comparable detection levels
same,"Relative colony forming ability, SV6 groEL673",E. coli SV6 groEL673,1
same,Plating ability,[1]; 0.00 % L(+)arabinose,"+++ (growth identical to that in presence of 0.2% L(+)arabinose (100%), in terms of both number and size)"
same,Plating ability,[1]; 0.01 % L(+)arabinose,"+++ (growth identical to that in presence of 0.2% L(+)arabinose (100%), in terms of both number and size)"
same,Plating ability,[1]; 0.10 % L(+)arabinose,"+++ (growth identical to that in presence of 0.2% L(+)arabinose (100%), in terms of both number and size)"
same,Plating ability,[1]; 0.15 % L(+)arabinose,"+++ (growth identical to that in presence of 0.2% L(+)arabinose (100%), in terms of both number and size)"
same,Complementation of groEL mutant strains for bacteriophage λ growth (in words),bacteriophage λ (b2cI),weak complementation of λ growth in SV2 (groEL44) and SV3 (groEL59; Ser201→Phe)
same,Effect of over-expression on plaque formation by bacteriophage λ in SV1 (groE^+) (in words),bacteriophage λ (b2cI),suffices to inhibit λ growth
same,"Growth of bacteriophage λ, SV1 (groEL^+)",bacteriophage λ (b2cI); pJC plasmid,− (no visible plaques (<10^−4))
same,"Growth of bacteriophage λ, SV2 groEL44",bacteriophage λ (b2cI); pJC plasmid,"+ (10-fold fewer plaques, or plaque size reduced relative to wild-type groEL^+ strain, or both)"
same,"Growth of bacteriophage λ, SV3 GroEL59",bacteriophage λ (b2cI); pJC plasmid,"++ (5-fold fewer plaques relative to wild-type groEL^+ strain, or both)"
same,"Growth of bacteriophage λ, SV6 groEL673",bacteriophage λ (b2cI); pJC plasmid,+/− (10^2-fold fewer plaques and plaque size reduced relative to wild-type groEL^+ strain)
same,cell death,[2],had no effect
same,inclusion formation,[2],had no effect
same,Plaque size and number,SV2 [pBADGroES],do not completely eliminate them
